Results reported in patent US9999222B2, “Herbicidal combination comprising azines” (BASF SE, priority 2014, dated 2018).
Values joined by “and” are separate entries in the source; they are usually repeats but may differ in a detail not shown here. Identical values can stand only once. Like-named read-outs stand apart in the source and are kept apart here.

Key:
Assay in all cases: Greenhouse test, pre-emergence treatment
[1] = tested on: KCHSC; assay type: in vivo, Kochia scoparia; conditions: pre-emergence
Summary of the method: (§1)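 Damage was rated on a 0-100 scale, with 100 meaning no emergence or full destruction of aerial parts. Observed combination effects were set against the additive Colby expectation E=X+Y−(X·Y/100). Spray liquor was water-based, from 10% emulsion concentrates, applied pre-emergence right after sowing in loamy sand (about 3.0% humus). Plants were held at 10-25 °C or 20-35 °C for 2 to 4 weeks.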

[2] = tested on: BRADC; assay type: in vivo, Brachiaria decumbens; conditions: pre-emergence, pre-emergence
Summary of the method: as §1

[3] = tested on: GERPU; assay type: in vivo, Geranium pusillum; conditions: pre-emergence
Summary of the method: as §1

[4] = tested on: ECHCG; assay type: in vivo, Echinocloa crus-galli
Summary of the method: as §1

[5] = tested on: IPOHE; assay type: in vivo, Ipomoea hederacea
Summary of the method: as §1

[6] = tested on: CENCY; assay type: in vivo, Centaurea cyanus
[7] = tested on: EPHHL; assay type: in vivo, Euphorbia heterophylla; conditions: pre-emergence
Summary of the method: as §1

[8] = tested on: POLCO; assay type: in vivo, Polygonum convolvulus; conditions: pre-emergence
Summary of the method: as §1

[9] = tested on: ALOMY; assay type: in vivo, Alopecurus myosuroides; conditions: pre-emergence, pre-emergence
Summary of the method: as §1

[10] = tested on: COMBE; assay type: in vivo, Commelina benghalensis; conditions: pre-emergence
Summary of the method: as §1

[11] = tested on: GALAP; assay type: in vivo, Galium aparine; conditions: pre-emergence
Summary of the method: as §1

[12] = tested on: PHACA; assay type: in vivo, Phalaris canariensis; conditions: Phalaris canariensis, pre-emergence, 480 h, pre-emergence, read-out: observed % activity 20 DAT
Summary of the method: as §1

[13] = tested on: AVEFA; assay type: in vivo, Avena fatua; conditions: Avena fatua, pre-emergence, 480 h, pre-emergence, read-out: observed % activity 20 DAT
Summary of the method: as §1

[14] = tested on: LOLMU; assay type: in vivo, Lolium multiflorum; conditions: pre-emergence, pre-emergence
Summary of the method: as §1

[15] = Bassia scoparia, 480 h, 4 g ai/ha, read-out: observed % activity 20 DAT
[16] = Bassia scoparia, 480 h, 8 g ai/ha, read-out: observed % activity 20 DAT
[17] = Echinochloa crus-galli, 480 h, 4 g ai/ha, read-out: observed % activity 20 DAT
[18] = Ipomoea hederacea, 480 h, 4 g ai/ha, read-out: observed % activity 20 DAT
[19] = Euphorbia heterophylla, 480 h, 8 g ai/ha, read-out: observed % activity 20 DAT
[20] = Fallopia convolvulus, 480 h, 4 g ai/ha, read-out: observed % activity 20 DAT
[21] = Alopecurus myosuroides, 480 h, 2 g ai/ha, read-out: observed % activity 20 DAT
[22] = Commelina benghalensis, 480 h, 4 g ai/ha, read-out: observed % activity 20 DAT
[23] = Galium aparine, 480 h, 4 g ai/ha, read-out: observed % activity 20 DAT
[24] = Galium aparine, 480 h, 8 g ai/ha, read-out: observed % activity 20 DAT
[25] = Lolium multiflorum, 480 h, 2 g ai/ha, read-out: observed % activity 20 DAT
[26] = Lolium multiflorum, 480 h, 8 g ai/ha, read-out: observed % activity 20 DAT

SMILES: Nc1nc(Nc2c(F)c(F)cc(F)c2F)nc(C2(F)CCCC2)n1 [compound 9, 6-(1-fluorocyclopentyl)-N4-(2,3,5,6-tetrafluorophenyl)-1,3,5-triazine-2,4-diamine]
- pest or weed control at 4 g/ha [1, 15]: 50%
- pest or weed control at 8 g/ha [1, 16]: 85%
- inhibition at 7 g/ha ([1]; Bassia scoparia, 480 h, KCHSC, individual, use rate 7 g ai/ha, read-out: observed % activity 20 DAT): 75%
- inhibition at 8 g/ha ([1]; Bassia scoparia, 480 h, KCHSC, individual, use rate 8 g ai/ha, read-out: observed % activity 20 DAT): 90%
- inhibition at 16 g/ha ([1]; Bassia scoparia, 480 h, KCHSC, individual, use rate 16 g ai/ha, read-out: observed % activity 20 DAT): 90%
- inhibition at 4 g/ha [1, 15]: 70%
- inhibition at 8 g/ha [1, 16]: 75%
- inhibition at 16 g/ha ([1]; Bassia scoparia, 480 h, 16 g ai/ha, read-out: observed % activity 20 DAT): 90%
- observed % activity 20 DAT ([1]; KCHSC, individual, use rate 16 g ai/ha): 80%
- observed % activity 20 DAT ([1]; 16 g ai/ha): 80%
- inhibition at 2 g/ha ([2]; Urochloa decumbens, 480 h, 2 g ai/ha, read-out: observed % activity 20 DAT): 20%
- inhibition at 4 g/ha ([2]; Urochloa decumbens, 480 h, 4 g ai/ha, read-out: observed % activity 20 DAT): 55%
- inhibition at 8 g/ha ([2]; Urochloa decumbens, 480 h, 8 g ai/ha, read-out: observed % activity 20 DAT): 35%
- observed % activity 20 DAT ([2]; 4 g ai/ha): 40%
- observed % activity 20 DAT ([3]; GERPU, individual, use rate 16 g ai/ha): 30% and 60%
- inhibition at 8 g/ha ([3]; Geranium pusillum, 480 h, GERPU, individual, use rate 8 g ai/ha, read-out: observed % activity 20 DAT): 40%
- pest or weed control at 4 g/ha ([3]; Geranium pusillum, 480 h, 4 g ai/ha, read-out: observed % activity 20 DAT): 20%
- inhibition at 8 g/ha ([3]; Geranium pusillum, 480 h, 8 g ai/ha, read-out: observed % activity 20 DAT): 40%
- observed % activity 20 DAT ([3]; 16 g ai/ha): 60% and 30%
- observed % activity 20 DAT ([4]; 2 g ai/ha): 70%
- inhibition at 2 g/ha ([4]; Echinochloa crus-galli, 480 h, 2 g ai/ha, read-out: observed % activity 20 DAT): 75%
- inhibition at 4 g/ha [4, 17]: 90%
- pest or weed control at 4 g/ha [4, 17]: 85%
- observed % activity 20 DAT ([5]; 16 g ai/ha): 15%
- observed % activity 20 DAT ([5]; IPOHE, individual, use rate 16 g ai/ha): 15%
- inhibition at 4 g/ha [5, 18]: 0%
- pest or weed control at 4 g/ha [5, 18]: 0%
- inhibition at 16 g/ha ([5]; Ipomoea hederacea, 480 h, 16 g ai/ha, read-out: observed % activity 20 DAT): 10%
- inhibition at 16 g/ha ([5]; Ipomoea hederacea, 480 h, IPOHE, individual, use rate 16 g ai/ha, read-out: observed % activity 20 DAT): 10%
- observed % activity 20 DAT ([6]; 4 g ai/ha): 40%
- observed % activity 20 DAT ([6]; 8 g ai/ha): 20%
- observed % activity 20 DAT ([7]; EPHHL, individual, use rate 8 g ai/ha): 30%
- inhibition at 8 g/ha ([7]; Euphorbia heterophylla, 480 h, EPHHL, individual, use rate 8 g ai/ha, read-out: observed % activity 20 DAT): 25%
- inhibition at 16 g/ha ([7]; Euphorbia heterophylla, 480 h, EPHHL, individual, use rate 16 g ai/ha, read-out: observed % activity 20 DAT): 15%
- pest or weed control at 4 g/ha ([7]; Euphorbia heterophylla, 480 h, 4 g ai/ha, read-out: observed % activity 20 DAT): 25%
- inhibition at 8 g/ha [7, 19]: 10%
- pest or weed control at 8 g/ha [7, 19]: 10%
- inhibition at 16 g/ha ([7]; Euphorbia heterophylla, 480 h, 16 g ai/ha, read-out: observed % activity 20 DAT): 20%
- pest or weed control at 4 g/ha [8, 20]: 20%
- pest or weed control at 8 g/ha ([8]; Fallopia convolvulus, 480 h, 8 g ai/ha, read-out: observed % activity 20 DAT): 80%
- inhibition at 8 g/ha ([8]; Fallopia convolvulus, 480 h, POLCO, individual, use rate 8 g ai/ha, read-out: observed % activity 20 DAT): 50%
- inhibition at 16 g/ha ([8]; Fallopia convolvulus, 480 h, POLCO, individual, use rate 16 g ai/ha, read-out: observed % activity 20 DAT): 70%
- inhibition at 4 g/ha [8, 20]: 20%
- inhibition at 16 g/ha ([8]; Fallopia convolvulus, 480 h, 16 g ai/ha, read-out: observed % activity 20 DAT): 80%
- observed % activity 20 DAT ([8]; 8 g ai/ha): 75%
- inhibition at 2 g/ha [9, 21]: 75%
- pest or weed control at 2 g/ha [9, 21]: 75%
- pest or weed control at 8 g/ha ([9]; Alopecurus myosuroides, 480 h, 8 g ai/ha, read-out: observed % activity 20 DAT): 98%
- observed % activity 20 DAT ([9]; 2 g ai/ha): 70%
- observed % activity 20 DAT ([9]; 4 g ai/ha): 45%
- observed % activity 20 DAT ([10]; COMBE, individual, use rate 16 g ai/ha): 35% and 15%
- pest or weed control at 4 g/ha [10, 22]: 25%
- pest or weed control at 8 g/ha ([10]; Commelina benghalensis, 480 h, 8 g ai/ha, read-out: observed % activity 20 DAT): 65%
- inhibition at 8 g/ha ([10]; Commelina benghalensis, 480 h, COMBE, individual, use rate 8 g ai/ha, read-out: observed % activity 20 DAT): 20%
- inhibition at 4 g/ha [10, 22]: 25%
- inhibition at 16 g/ha ([10]; Commelina benghalensis, 480 h, 16 g ai/ha, read-out: observed % activity 20 DAT): 20%
- observed % activity 20 DAT ([10]; 16 g ai/ha): 35%
- observed % activity 20 DAT ([11]; GALAP, individual, use rate 8 g ai/ha): 50%
- pest or weed control at 4 g/ha [11, 23]: 55%
- pest or weed control at 8 g/ha [11, 24]: 90%
- inhibition at 8 g/ha ([11]; Galium aparine, 480 h, GALAP, individual, use rate 8 g ai/ha, read-out: observed % activity 20 DAT): 70%
- inhibition at 16 g/ha ([11]; Galium aparine, 480 h, GALAP, individual, use rate 16 g ai/ha, read-out: observed % activity 20 DAT): 60%
- inhibition at 4 g/ha [11, 23]: 55%
- inhibition at 8 g/ha [11, 24]: 70%
- inhibition at 16 g/ha ([11]; Galium aparine, 480 h, 16 g ai/ha, read-out: observed % activity 20 DAT): 60%
- inhibition at 2 g/ha ([12]; 2 g ai/ha): 0%
- pest or weed control at 2 g/ha ([12]; 2 g ai/ha): 0%
- inhibition at 8 g/ha ([12]; 8 g ai/ha): 50%
- pest or weed control at 8 g/ha ([12]; 8 g ai/ha): 70%
- inhibition at 2 g/ha ([13]; 2 g ai/ha): 0%
- inhibition at 8 g/ha ([13]; 8 g ai/ha): 0%
- inhibition at 2 g/ha [14, 25]: 0%
- pest or weed control at 2 g/ha [14, 25]: 0%
- inhibition at 8 g/ha [14, 26]: 75%
- pest or weed control at 8 g/ha [14, 26]: 75%
- observed % activity 20 DAT ([14]; 8 g ai/ha): 80%
